Assay results published in patent US20260116884A1, “PROTAC CHIMERIC COMPOUND, PREPARATION METHOD THEREFOR AND USE THEREOF” (HANGZHOU ZHONGMEIHUADONG PHARMACEUTICAL CO., LTD., priority 2022, published 2026).
Read-outs that look alike come from different tables or passages of the source.

What was measured:
human HPK1 [1] = target: T1, human HPK1 (Homo sapiens, UniProt Q92918); assay: HPK1 protein degradation assay (WB) in RAMOS cell line; type: cell-based; set-up: The RAMOS cell line was selected as the degradation cell line; endogenous in cells; host or cells: RAMOS; settings: RAMOS cells, 16 h, Western blot
T1 sequence (Q92918 whole entry): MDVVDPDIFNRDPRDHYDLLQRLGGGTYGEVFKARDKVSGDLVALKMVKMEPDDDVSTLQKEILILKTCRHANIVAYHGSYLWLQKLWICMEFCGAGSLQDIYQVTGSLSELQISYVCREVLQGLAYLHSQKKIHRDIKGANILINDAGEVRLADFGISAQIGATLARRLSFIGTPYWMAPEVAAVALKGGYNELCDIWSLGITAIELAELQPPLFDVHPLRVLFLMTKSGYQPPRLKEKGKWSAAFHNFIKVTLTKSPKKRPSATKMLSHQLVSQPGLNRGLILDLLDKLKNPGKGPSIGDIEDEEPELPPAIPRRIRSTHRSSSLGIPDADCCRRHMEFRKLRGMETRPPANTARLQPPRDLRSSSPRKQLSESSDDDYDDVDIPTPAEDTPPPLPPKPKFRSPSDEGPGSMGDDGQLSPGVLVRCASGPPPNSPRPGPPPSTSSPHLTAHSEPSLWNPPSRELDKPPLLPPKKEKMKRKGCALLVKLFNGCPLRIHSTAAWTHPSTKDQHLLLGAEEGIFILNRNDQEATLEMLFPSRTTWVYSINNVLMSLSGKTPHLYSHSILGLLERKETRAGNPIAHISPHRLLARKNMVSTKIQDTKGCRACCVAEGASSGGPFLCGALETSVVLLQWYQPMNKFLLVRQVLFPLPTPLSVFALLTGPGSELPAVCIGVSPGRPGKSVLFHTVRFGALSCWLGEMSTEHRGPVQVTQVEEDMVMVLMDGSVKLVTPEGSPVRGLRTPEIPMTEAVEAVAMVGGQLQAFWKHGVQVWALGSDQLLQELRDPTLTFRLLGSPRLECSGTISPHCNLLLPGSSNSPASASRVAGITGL
Procedure: Degradation of HPK1 proteins and DC50/Dmax were determined by the WB method in order to evaluate the in vitro degradative ability of the compound.
The RAMOS cell line was selected as the degradation cell line. Incubation Conditions: RMPI 1640 culture medium supplemented with 10% FBS, 37° C., 5% CO2.
• (1) Plating cells: in a 6 cm dish with 4 ml of the culture medium, cells plated at 2×10^6 cells/dish. • (2) Drug addition: the compound (stock solution concentration: 10 mM) was diluted with DMSO in a dilution plate, with a maximum starting concentration of 10 μM and 7 concentration gradient points (3-fold dilution). 4 μl of each diluted solution was taken, added to a dish, and incubated for 16 h. • (3) Cells were harvested, added with a lysis buffer, and centrifuged at 12000 rpm/min for 20 min. The supernatant was collected. After quantification using a BCA quantification kit, 5× loading buffer was added to denature for 10 min. • (4) 10 μg of denatured protein was added to the SDS-PAGE gel. After electrophoresis and membrane transfer, the plate was blocked with 5% BSA for 1 h, incubate with the primary antibody at 4° C. overnight. After washing off the primary antibody, the secondary antibody was added, incubated at room temperature for 1 h, and washed off.
Imaging: the membranes were scanned with a two-color fluorescence imaging system.

[2] = Pharmacokinetics of single administration in mice; type: in vivo, Balb/c mice; set-up: Vz: unit not given here
Procedure: Female Balb/c mice (weighing 18-22 g) were fasted overnight prior to the experiment. The test compound was dissolved in the vehicle, DMSO:PEG400:30% captisol:HCl=5:20:70:5 (v/v/v/v), and administered by single oral gavage at a dose of 10 mg/kg or by intravenous injection at a dose of 2 mg/kg. Blood samples were collected from the orbital venous plexus at 15 minutes, 30 minutes, and 1, 2, 4, 6, 8, and 24 h after administration. Approximately 0.08 mL of blood was collected at each time point and placed in a 1.5 mL centrifuge tube containing EDTA-2K anticoagulant. Blood samples were centrifuged (3200 g, 10 min, 4° C.) within 2 h to obtain plasma samples. Plasma samples were frozen at −70° C. to −80° C. in an ultra-low temperature freezer prior to processing. Before sample processing, the plasma samples were taken out of the freezer. After thawing at room temperature, 20 μL of each plasma sample was added into a 96-well plate, and then 120 μL of acetonitrile containing an internal standard was added to precipitate proteins. […] The supernatant was taken and mixed with an equal volume of 0.1% aqueous formic acid solution for LC-MS/MS analysis.

human HPK1 [3] = target: T1, human HPK1; assay: Assay of in vitro HPK1 enzymatic activity (ADP-Glo); type: biochemical; settings: 7 nM kinase, 20 uM ATP
Procedure: Compounds were evaluated for their ability to inhibit human HPK1 by IC50 determination using the ADP-Glo method to measure the kinase activity.
Buffer conditions of the enzyme: 50 mM Hepes (pH 7.5), 10 mM MgCl2, 1 mM EGTA, 0.01% Brij35, 2 mM DTT.
Preparation of the Kinase and substrate mixture: the working concentration of the kinase in the HPK1 reaction solution was 7 nM and the working concentration of ATP was 20 uM.
The compound was diluted with DMSO in a dilution plate, with a maximum starting concentration of 1 uM and 10 concentration gradient points (4-fold dilution).
Each of the above 10 concentration gradient points of the compound was then diluted 50-fold into the kinase reaction buffer and shaken on a shaker for 20 min. The kinase was prepared in an enzyme reaction buffer and 2 μl of the HPK1 kinase was added per well of the reaction plate at a HPK1 kinase concentration of 7 nM.
1 μl of diluted compound in the buffer was added per well, and the plate was sealed with a plate sealing film, centrifuged at 1000 g for 30 seconds, and left at room temperature for 10 minutes. An ATP solution was prepared with an enzyme reaction buffer and 2 μl of the ATP solution was added to the reaction plate (the working concentration of ATP was 20 uM). The plate was sealed with a plate sealing film, centrifuged at 1000 g for 30 seconds, and reacted at room temperature for 60 minutes. 4 μL of ADP-Glu was transferred to a 384 reaction plate, centrifuged at 1000 rpm/min for 1 min, and incubated at 25° C. for 40 min. 8 μL of the Detection solution was transferred to a 384 reaction plate, centrifuged at 1000 rpm/min for 1 min, and incubated at 25° C. for 40 min. The RLU (Relative luminescence unit) signal was read using a BMG microplate reader, and the signal intensity was used to characterize the activity level of the kinase.
The kinase activity data was expressed by comparing the kinase activity of the test compound and the blank group (containing only DMSO), and the IC50 value was obtained by curve fitting using the Prism software (GraphPad7.0).

[4] = female, Balb/c, mouse, plasma, iv 2 mg/kg
[5] = female, Balb/c, mouse, plasma, iv 2 mg/kg, read-out: AUC
[6] = female, Balb/c, mouse, plasma, po 10 mg/kg
[7] = female, Balb/c, mouse, plasma, po 10 mg/kg vs iv 2 mg/kg
[8] = female, Balb/c, mouse, plasma, po 10 mg/kg, read-out: AUC
[9] = female, Balb/c, mouse, plasma, po 10 mg/kg, read-out: Cmax

Structure (SMILES)	DC50 (human HPK1 [1])	Dmax (human HPK1 [1])	also measured
COCCn1cc(-c2c[nH]c3ncc(-c4ccc(N5CCC(CC6CCN(C(=O)c7ccc(Cl)c(N8CCC(=O)NC8=O)c7)CC6)CC5)nc4)nc23)cn1 [Compound C201]	30.6 nM	76.1%	clearance [2, 4]: 6.58 mL/min/kg; half-life [2, 4]: 2.16 h; AUC [2, 5]: 5050 ng·h/mL; half-life [2, 6]: 2.63 h; bioavailability [2, 7]: 34.2%; AUC [2, 8]: 8660 ng·h/mL; Cmax [2, 9]: 4500 ng/mL; Vz ([2]; iv 2 mg/kg): 1230
O=C1CCN(c2cc(C(=O)N3CCC(CC4CCN(c5ccc(-c6cnc7[nH]cc(-c8cnn(CCF)c8)c7n6)cn5)CC4)CC3)ccc2Cl)C(=O)N1 [Compound C197]	5.28 nM	77.5%	clearance [2, 4]: 4.5 mL/min/kg; AUC ([2]; iv 2 mg/kg): 7397 ng·h/mL; Vz ([2]; iv 2 mg/kg): 917; t1/2 ([2]; iv 2 mg/kg): 2.35 h; AUC ([2]; po 10 mg/kg): 9202 ng·h/mL; Cmax ([2]; po 10 mg/kg): 4680 ng/mL; t1/2 ([2]; po 10 mg/kg): 3.18 h; F % ([2]; po 10 mg/kg vs iv 2 mg/kg): 25.1%
CCN1CCC(n2cc(-c3c[nH]c4ncc(-c5cnc(OCC(=O)N6CCC(c7ccc(NC8CCC(=O)NC8=O)cc7)CC6)c(C)c5)nc34)cn2)CC1 (stereo not drawn) [Compound C007]			IC50 (human HPK1 [3]): 5.2 nM
CCN1CCC(n2cc(-c3c[nH]c4ncc(-c5ccc(OCCNC(=O)c6ccc(Cl)c(N7CCC(=O)NC7=O)c6)nc5)nc34)cn2)CC1 [Compound C033]			IC50 (human HPK1 [3]): 7.5 nM
O=C1CCN(c2cc(C(=O)N3CCC(CC4CCN(c5ccc(-c6cnc7[nH]cc(-c8cnn(C(F)F)c8)c7n6)cn5)CC4)CC3)ccc2Cl)C(=O)N1 [Compound C167]	23.9 nM	66.8%	
CCN1CCC(n2cc(-c3c[nH]c4ncc(-c5ccc(N6CCN(C7CC8(CCN(C(=O)c9ccc(Cl)c(N%10CCC(=O)NC%10=O)c9)CC8)C7)CC6)cc5)nc34)cn2)CC1 [Compound C030]			IC50 (human HPK1 [3]): 0.2 nM
CCN1CCC(n2cc(-c3c[nH]c4ncc(-c5cnc(OC6CCN(C(=O)c7cccc(N8CCC(=O)NC8=O)c7)CC6)c(C)c5)nc34)cn2)CC1 [Compound C019]			IC50 (human HPK1 [3]): 2 nM
CCN1CCC(n2cc(-c3c[nH]c4ncc(-c5ccc(N6CCN(C(=O)CCCCCNc7cccc8c7C(=O)N(C7CCC(=O)NC7=O)C8=O)CC6)nc5)nc34)cn2)CC1 (stereo not drawn) [Compound C026]			IC50 (human HPK1 [3]): 1.6 nM
CCN1CCC(n2cc(-c3c[nH]c4ncc(-c5cnc(N6CCN(CC7CN(C(=O)c8cccc(N9CCC(=O)NC9=O)c8)C7)CC6)c(C)c5)nc34)cn2)CC1 [Compound C011]			IC50 (human HPK1 [3]): 0.7 nM
CCN1CCC(n2cc(-c3c[nH]c4ncc(-c5ccc(N6CCC(CC7CCN(C(=O)c8ccc(Cl)c(N9CCC(=O)NC9=O)c8)CC7)CC6)nc5)nc34)cn2)CC1 [Compound C092]	21.4 nM		
O=C1CCN(c2cc(C(=O)N3CCC(CC4CCN(c5ccc(-c6cnc7[nH]cc(-c8cn[nH]c8)c7n6)cn5)CC4)CC3)ccc2Cl)C(=O)N1 [Compound C198]	32.9 nM	91.8%	
CCN1CCC(n2cc(-c3c[nH]c4ncc(-c5cnc(N6CCN(CC7CN(c8cccc9c8C(=O)N(C8CCC(=O)NC8=O)C9=O)C7)CC6)c(C)c5)nc34)cn2)CC1 (stereo not drawn) [Compound C012]			IC50 (human HPK1 [3]): 1.9 nM
Cc1ccc(C(=O)N2CCC(CC3CCN(c4ncc(-c5cnc6[nH]cc(-c7cnn(C)c7)c6n5)cn4)CC3)CC2)cc1N1CCC(=O)NC1=O [Compound C204]	58 nM	85.4%	
O=C1CCC(c2cc(C(=O)N3CCC(CC4CCN(c5ccc(-c6cnc7[nH]cc(-c8cnn(CCO)c8)c7n6)cn5)CC4)CC3)ccc2Cl)C(=O)N1 (stereo not drawn) [Compound C209]	29 nM	84%	
O=C1CCN(c2cc(C(=O)N3CCC(CC4CCN(c5ccc(-c6cnc7[nH]cc(-c8cnn([C@@H]9CCOC9)c8)c7n6)cn5)CC4)CC3)ccc2Cl)C(=O)N1 [Compound C199]	83 nM	83.8%	
Cn1cc(-c2c[nH]c3ncc(-c4cnc(N5CCC(CC6CCN(C(=O)c7ccc(Cl)c(N8CCC(=O)NC8=O)c7)CC6)CC5)nc4)nc23)cn1 [Compound C203]	5.99 nM	91.7%	
CC(C)(C#N)n1cc(-c2c[nH]c3ncc(-c4ccc(N5CCC(CC6CCN(C(=O)c7ccc(Cl)c(N8CCC(=O)NC8=O)c7)CC6)CC5)nc4)nc23)cn1 [Compound C181]	214 nM	64.4%	
CCc1c[nH]c2ncc(-c3ccc(N4CCC(CC5CCN(C(=O)c6ccc(Cl)c(N7CCC(=O)NC7=O)c6)CC5)CC4)nc3)nc12 [Compound C205]	89.9 nM	83%	
CCN1CCC(n2cc(-c3c[nH]c4ncc(-c5ccc(N6CCC(CN7CCN(C(=O)c8ccc(Cl)c(N9CCC(=O)NC9=O)c8)CC7)CC6)nc5)nc34)cn2)CC1 [Compound C084]	1.21 nM	93%	
O=C1CCN(c2cc(C(=O)N3CCC(CC4CCN(c5ccc(-c6cnc7[nH]cc(-c8cnn(CC(F)(F)F)c8)c7n6)cn5)CC4)CC3)ccc2Cl)C(=O)N1 [Compound C196]		93.8%	
CCN1CCC(n2cc(-c3c[nH]c4ncc(-c5ccc(N6CCC(CC7CCN(C(=O)c8ccc(Cl)c(N9CCC(=O)NC9=O)c8)CC7C)CC6)cc5)nc34)cn2)CC1 (stereo not drawn) [Compound C115]	23.5 nM	66.4%	
CCN1CCC(n2cc(-c3c[nH]c4ncc(-c5ccc(N6CCC(CC7CCCN(C(=O)c8ccc(Cl)c(N9CCC(=O)NC9=O)c8)CC7)CC6)nc5)nc34)cn2)CC1 (stereo not drawn) [Compound C085]	385 nM	56.4%	
O=C1CCN(c2cc(C(=O)N3CCC(CC4CCN(c5ccc(-c6cnc7[nH]cc(-c8cnn(CC(F)F)c8)c7n6)cn5)CC4)CC3)ccc2Cl)C(=O)N1 [Compound C195]	18.7 nM	80.7%	clearance [2, 4]: 0.785 mL/min/kg; half-life [2, 4]: 2.41 h; AUC [2, 5]: 42500 ng·h/mL; half-life [2, 6]: 2.8 h; bioavailability [2, 7]: 20.7%; AUC [2, 8]: 44000 ng·h/mL; Cmax [2, 9]: 14300 ng/mL; Vz ([2]; iv 2 mg/kg): 164
CCN1CCC(n2cc(-c3c[nH]c4ncc(-c5ccc(N6CCC(F)(CN7CCN(C(=O)c8ccc(Cl)c(N9CCC(=O)NC9=O)c8)CC7)CC6)cc5)nc34)cn2)CC1 [Compound C137]	230 nM	58.4%	
Cn1cc(-c2c[nH]c3ncc(-c4ccc(N5CCC(CC6CCN(C(=O)c7ccc(Cl)c(C8CCC(=O)NC8=O)c7)CC6)CC5)nc4)nc23)cn1 (stereo not drawn) [Compound C206]	190 nM	73%	
O=C1CCN(c2cc(C(=O)N3CCC(CC4CCN(c5ccc(-c6cnc7[nH]cc(-c8cnn(CC9CC9)c8)c7n6)cn5)CC4)CC3)ccc2Cl)C(=O)N1 [Compound C177]	632 nM	51.6%	
Cn1cc(-c2c[nH]c3ncc(-c4ccc(N5CCC(CC6CCN(C(=O)c7ccc(Cl)c(N8CCC(=O)NC8=O)c7)CC6)CC5)cc4)nc23)cn1 [Compound C140]	198 nM	50.7%	
